Results: patent publication US7741323B2, “Indene derivatives and process for the preparation thereof” (Korea Research Institute of Chemical Technology, priority 2004, dated 2010)

Tests used:
Type in all cases: in vivo
C57/BL6J mice = experiment: Suppression of blood glucose and insulin levels in high fat diet C57/BL6J mice
Source text: Days 1, 3 and 5 were selected for intraperitoneal administration, and days 5, 10 and 14, for oral administration, to collect blood samples for measuring the blood glucose levels. […] Upon the completion of the oral administration for 14 days, the mice were fasted for 16 hrs to perform OGTT (Oral Glucose Tolerance Test) to determine the changes in insulin sensitivity induced by the oral administration. After administrating glucose to the mice at a dose of 2 g/kg orally, blood samples were collected at 0, 15, 30 60 and 120 minutes to measure blood glucose levels.
The extents of suppression of blood glucose and insulin levels were measured as mentioned above. To check possible adverse side effects caused by the administration of the compound, the weight, heart weight and liver weight of each mouse were measured. GPT and GOT values were also calculated by employing a kit available in the market.

ob/ob mice = experiment: Effectiveness in lowering blood glucose level in ob/ob mice
Procedure: The resulting solution was intraperitoneally administered to the mice at a dose of 50 mg/kg, once a day for 5 days, or orally administered to the mice, at a dose of 100 mg/kg, twice a day for 14 days. Days 1, 3 and 5 were selected for intraperitoneal administration, and days 5, 10 and 14, for oral administration, to collect blood samples for measuring the blood glucose levels. […] Upon the completion of the oral administration for 14 days, the mice were fasted for 16 hrs to perform OGTT (Oral Glucose Tolerance Test) to determine the changes in insulin sensitivity induced by the oral administration. After administrating glucose to the mice at a dose of 2 g/kg orally, blood samples were collected at 0, 15, 30 60 and 120 minutes to measure blood glucose levels.

[1] = Adverse side effects check (weight, heart weight, liver weight, GPT/GOT) in high fat diet C57/BL6J mice
Procedure: To check possible adverse side effects caused by the administration of the compound, the weight, heart weight and liver weight of each mouse were measured. GPT and GOT values were also calculated by employing a kit available in the market.

[2] = high fat diet C57/BL6J mice, after 14 days oral administration
[3] = high fat diet C57/BL6J mice, oral administration once a day for 14 days
[4] = high fat diet C57/BL6J mice, oral administration for 14 days

## 1-hydroxy-6-(2-morpholine-4-yl-ethoxy)-1,3-diphenyl-1H-indene-2-carboxylic acid ethyl ester [Example 8]
C57/BL6J mice; administered orally or intraperitoneally, summary of Tables 6, 7 and 8
  effect in lowering blood glucose and insulin levels: excellent effect in lowering both blood glucose and insulin levels
C57/BL6J mice; [2]
  % Inhibition, Oral Glucose Tolerance Test (Glucose): 23.8%
  % Inhibition, Oral Glucose Tolerance Test (Insulin): 56.2%
C57/BL6J mice; [3]
  % Inhibition, Blood glucose concentration: 30.0%
  % Inhibition, Blood insulin concentration: 44.6%
ob/ob mice; ob/ob mice after 14 days oral administration, fasted 16 hrs, glucose 2 g/kg orally, total blood glucose over 120 minutes
  % Inhibition, Oral Glucose Tolerance Test (Blood Glucose): 10.2%
ob/ob mice; ob/ob mice, i.p. 50 mg/kg once a day for 5 days, relative to control
  % Inhibition, blood glucose, Intraperitoneal Administration (50 mg/kg/day): 32.0%
ob/ob mice; ob/ob mice, oral 100 mg/kg twice a day for 14 days, relative to control
  % Inhibition, blood glucose, Oral Administration (100 mg/kg/day): 23.7%
[1]; [4]
  GOT: 39 ± 7.8 karmen
  GPT: 29 ± 3.2/ karmen
  Heart Weight: 0.123 ± 0.007 g
  Liver Weight: 1.06 ± 0.17 g
  Weight: 35 ± 1.1 g
[1]; summary of Tables 6, 7 and 8
  side effects (weight gain, hepatotoxicity, cardiotoxicity): no side effects such as weight gain, hepatotoxicity or cardiotoxicity
